Each compound was assayed against T1, Brucella melitensis DAPDC (diaminopimelate decarboxylase) (Brucella melitensis, UniProt Q8YJJ9) (assay: not given). Settings: 200 mM Tris-HCl pH 8.0, 4 mM α-ketoglutarate, 600 μM NADH, 0.1 mM PLP, excess SDH, DAP 0-20 mM, room temperature.
T1 construct: gene lysA
T1 sequence (Q8YJJ9 1-421): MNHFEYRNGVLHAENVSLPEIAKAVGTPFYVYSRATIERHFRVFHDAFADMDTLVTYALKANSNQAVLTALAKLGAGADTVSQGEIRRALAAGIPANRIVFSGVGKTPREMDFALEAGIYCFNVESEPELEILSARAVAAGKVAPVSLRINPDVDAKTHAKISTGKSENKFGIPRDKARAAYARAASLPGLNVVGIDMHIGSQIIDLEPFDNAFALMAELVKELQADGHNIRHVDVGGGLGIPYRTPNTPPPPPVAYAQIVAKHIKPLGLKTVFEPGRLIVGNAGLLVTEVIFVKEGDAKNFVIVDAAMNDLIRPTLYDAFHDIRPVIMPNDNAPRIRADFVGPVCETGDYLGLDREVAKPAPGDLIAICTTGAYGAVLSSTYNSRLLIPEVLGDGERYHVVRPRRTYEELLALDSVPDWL
In the case of NC(CCCC(N)C(=O)O)C(=O)O (stereo not drawn) [DAP], the “DAPDC-SDH coupled assay, NADH A340 endpoint” value was “hyperbolic behavior of DAPDC activity as a function of DAP concentration”.

These compounds were tested against T2, Saccharomyces cerevisiae saccharopine dehydrogenase (SDH) (Saccharomyces cerevisiae, UniProt P38998) (assay: NADH oxidation, A340 endpoint). Settings: 200 mM Tris pH 8.0, 600 μM NADH, α-ketoglutarate, room temperature, 15 min.
T2 construct: gene LYS1; SDH coding gene in pET30a, Ni-NTA purified, expressed in E. coli BL21(DE3), about 41 kDa
T2 sequence (P38998 2-373): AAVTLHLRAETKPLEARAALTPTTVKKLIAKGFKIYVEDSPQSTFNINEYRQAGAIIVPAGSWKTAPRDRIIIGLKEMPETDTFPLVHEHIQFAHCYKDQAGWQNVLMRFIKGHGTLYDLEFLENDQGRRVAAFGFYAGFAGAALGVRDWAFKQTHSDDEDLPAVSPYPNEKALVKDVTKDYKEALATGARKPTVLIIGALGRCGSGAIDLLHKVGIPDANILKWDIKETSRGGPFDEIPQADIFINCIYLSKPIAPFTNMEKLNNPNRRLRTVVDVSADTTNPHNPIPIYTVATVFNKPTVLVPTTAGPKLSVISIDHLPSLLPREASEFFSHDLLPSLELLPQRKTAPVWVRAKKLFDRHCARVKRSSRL
Type: biochemical
In the case of NCCCC[C@H](N)C(=O)O [L-lysine], the “NADH oxidation, A340 endpoint” value was “Activity of SDH as a function of the concentration of L-lysine”.

What follows are compounds tested against T1, Brucella melitensis DAPDC (diaminopimelate decarboxylase) (assay: not given). Settings: 40 µM.
With O.O.O=C([O-])CCNC(=O)c1ccc(N=Nc2ccc([O-])c(C(=O)O)c2)cc1.[Na+].[Na+] [SID8, S3745] the “Inhibitory rate (%)” value was 54.83%.
For CC(C)(C)C(=O)Oc1ccc(S(=O)(=O)Nc2ccccc2C(=O)NCC(=O)[O-])cc1.O.O.O.O.[Na+] [SID9, S4666], the “Inhibitory rate (%)” value was 52.88%.

These compounds were tested against T1, Brucella melitensis DAPDC (diaminopimelate decarboxylase) (assay: biochemical). Settings: read-out: Inhibitory rate (%).
CCN(CCO)CCCC(C)Nc1ccnc2cc(Cl)ccc12 (racemic) [SID6, S4430] was tested, and the inhibition at 40 µM was 56.1%.
CC(NC(C)(C)C)C(=O)c1cccc(Cl)c1 (racemic) [SID13, S2452] gave an inhibition at 40 µM of 47.7%.
COc1cc(C2Oc3ccc(C4Oc5cc(O)cc(O)c5C(=O)C4O)cc3OC2CO)ccc1O (stereo not drawn) [SID1, S2357] was tested, and the inhibition at 40 µM was 70.3%.
Nc1nc(=S)c2[nH]cnc2[nH]1 [SID2, S1774] was tested, and the inhibition at 40 µM was 68.7%.
Work on Cc1nc(Nc2ncc(C(=O)Nc3c(C)cccc3Cl)s2)cc(N2CCN(CCO)CC2)n1 [SID3, dasatinib monohydrate] yielded an inhibition at 40 µM of 67.1%.
Work on Cc1cccn2c(=O)c(-c3nn[nH]n3)cnc12 [SID5, S4008] yielded an inhibition at 40 µM of 63.1%.
With C[C@H]1COc2c(N3CCN(C)CC3)c(F)cc3c(=O)c(C(=O)O)cn1c23 [SID7, levofloxacin] the inhibition at 40 µM was 55.3%.
With CC(=O)c1c(C)c2cnc(Nc3ccc(N4CCNCC4)cn3)nc2n(C2CCCC2)c1=O [SID10, S1579] the inhibition at 40 µM was 52.1%.
For CO[C@H]1/C=C/O[C@@]2(C)Oc3c(C)c(O)c4c(O)c(c(/C=N/N5CCN(C)CC5)c(O)c4c3C2=O)NC(=O)/C(C)=C\C=C\[C@H](C)[C@H](O)[C@@H](C)[C@@H](O)[C@@H](C)[C@H](OC(C)=O)[C@@H]1C [SID11, rifampin], the inhibition at 40 µM was 51.5%.
For CCC(=O)c1c(O)cc(O)cc1O [SID12, S4249], the inhibition at 40 µM was 49.2%.
CC(C)Nc1cc(-c2c[nH]c(C(=O)N[C@H](CO)c3cccc(Cl)c3)c2)c(Cl)cn1 [SID14, ulixertinib] was tested, and the inhibition at 40 µM was 47.3%.
Compound COc1ccc(-c2nc3ccc(C4=NNC(=O)CC4C)cc3[nH]2)cc1 (stereo not drawn) [SID15, pimobendan] has an inhibition at 40 µM of 46.8%.
Work on CC1COc2c(N3CCN(C)CC3)c(F)cc3c(=O)c(C(=O)O)cn1c23 (stereo not drawn) [SID16, S1940] yielded an inhibition at 40 µM of 46.7%.
Cc1c(Cl)cccc1Nc1ccccc1C(=O)O [SID20, tolfenamic acid] was tested, and the inhibition at 40 µM was 44%.

— PMC6986272 (Frontiers in Microbiology, 2020)
